What was measured:
[1] = DPBF singlet oxygen (ROS) scavenger assay in methanol; settings: 470 nm LED, t=210 seconds relative to t=0, 10 mM DPBF in methanol, absorbance matched
Method: Given the impact of the heavy iodine atom on phototoxicity, to confirm if the origin of toxicity is triplet sensitised formation of ^1O2 we carried out ROS scavenger studies with 1,3‐diphenylisobenzofuran (DPBF, Figure 6C). Stock solutions of BODIPY‐perylene were prepared under absorbance matched conditions and a BODIPY‐DPBF solution prepared at concentration of 10 mM DPBF in methanol. The BODIPY‐DPBF solution was irradiated (470 nm) from 0–210 seconds and the absorption spectra recorded every 30 seconds. In the presence of ^1O2, DPBF forms an unstable peroxide, endoperoxide 1, that readily decomposes to colourless 1,2‐dibenzoylbenzene (DBB).[51] This change is detected spectrophotometrically with depletion of DPBF absorbance at 410 nm. The DPBF assay results are represented in Figure 6C as % decrease in absorbance at 410 nm. The values are determined at t=210 seconds relative to the absorbance values recorded prior to irradiation at t=0. […] As expected, the most phototoxic compound, MB2PI, generates the most ^1O2 upon irradiation with a 470 nm LED with a 52 % decrease in DPBF absorbance at 410 nm. […] DPBF is known to be sensitive to light, therefore, to mitigate photodegradation of affecting the assay results, exposure was limited to 3.5 minutes where DPBF absorbance decrease at 410 nm is <10 % at this time point. […] Due to the photo‐vulnerability of DPBF under visible irradiation, this study is limited by a short experimental window and ignores any ROS generation over longer irradiation periods. […]
Figure 6 ROS dye H2DCFDA (A) prior to irradiation and (B) after 5 minutes of continuous irradiation confirming ROS generation. […] A graph of ROS scavenger DPBF response to irradiation of the BODIPY‐perylene compounds is shown in (C) where a decrease in absorbance at 410 nm confirms ^1O2 generation upon photoactivation. Studies were performed with the BODIPY‐perylene compounds under absorbance matched conditions. Values shown indicate the % decrease in absorbance values recorded at t=0 and t=210 seconds and is reported as mean±standard deviation. […]
To assess singlet oxygen (1O2) production and determine if the phototoxicity of our BODIPY complexes was caused by the generation of reactive oxygen species (ROS), a 1O2 scavenger study was completed using 1,3-diphenylisobenzofuran (DPBF). A 20 mM solution of DPBF in methanol was prepared, and stocks of the BODIPY-perylene compounds in DMSO were prepared under absorbance matched concentrations, starting at a 30 µM concentration of each. Test solutions of 1:1, DPBF: BODIPY in methanol (final concentration of 10 mM DPBF) were added to a clear 96 well plate (Nunc) and absorbance was measured using a BMG LABTECH CLARIOstar plate reader. […]

CHO cells = test: Phototoxicity, 470 nm LED, alamar blue assay; format: cell-based, Chinese Hamster; settings: 17 J/cm^2, 470 nm LED
Method: The phototoxicity of the BODIPY's were assessed to compare the light induced toxicity of the iodinated compounds with their non‐iodinated counterparts. CHO and MCF‐7 cells were treated with B2P, B2PI, MB2P, and MB2PI in a concentration range from 0.10–1 μM for 17 h, the wells were decanted and filled with 100 μL phenol red free media prior to irradiation with a 470 nm LED (17 J/cm^2). Cell viability was determined using the alamar blue cell viability assay and % viability was calculated relative to untreated control wells.
Dark‐ and photo‐toxicity studies were performed by seeding CHO and MCF‐7 cells in clear 96‐well plates (Nunc) and treating with varying concentrations of B2P, MB2P, B2PI and MB2PI. Phototoxicity experiments were carried out using a 470 nm LED. For hypoxic phototoxicity studies, hypoxia was mimicked by adding CoCl2 to the cells prior to irradiation. Cell viability was determined using the alamar blue assay and absorbance measured with a BMG LABTECH CLARIOstar plate reader. […]
For 24 h dark toxicity studies, 50, 10, 5 and 1 µM stock concentrations of B2P, B2PI, MB2P and MB2PI were prepared in media to a final DMSO concentration of ≤1%. 100 µL of each concentration was added to the wells in triplicate and the plates incubated for 24 h in the dark at 37°C. Cell viability of all plate-based studies was assessed using the alamar blue assay. A 10% Resazurin-media solution (alamarBlue, Invitrogen) was added to the wells and incubated for 5 h in the absence of light. Absorbance was measured using a BMG LABTECH CLARIOstar plate reader at 570 nm and 600 nm (corrected for background subtraction). Cell viability is presented as a percentage (%) compared to untreated control wells. Plates were performed in triplicate.
Phototoxicity and dark control plates were performed by incubating CHO or MCF-7 cells with B2P, B2PI, MB2P and MB2PI for 17 h to allow uptake, emptying the wells, replacing with phenol red free media, and irradiating at a total dose of 17 ± 1.64 J/cm2 (2 h at 2.37 ± 0.23 mW/cm2) using a 470 nm LED (TeleOpto LEDA-X LED driver and array). Control plates were incubated in the dark during the irradiation period (2 h). After irradiation, the cells were incubated in the dark overnight to allow for cell recovery. Irradiation conditions were tested on untreated cells to confirm cells remained viable at this dose before any experiments were performed and each phototoxicity plate included untreated test wells for cell viability comparison. Viability was determined using the alamar blue assay as per the cytotoxicity

Row | SMILES | decrease in DPBF absorbance at 410 nm [1] [%] | Photo Index (PI), ratio of dark IC50 to light IC50 (CHO cells)
1 | CC1=C(I)C(C)=[N+]2C1=C(c1ccccc1)c1c(C)c(-c3ccc4c5cccc6cccc(c7cccc3c74)c65)c(C)n1[B-]2(F)F [B2PI] | 31 | > 87
2 | CC1=C(c2ccc3c4cccc5cccc(c6cccc2c63)c54)C(C)=[N+]2C1=C(c1c(C)cc(C)cc1C)c1c(C)c(I)c(C)n1[B-]2(F)F [MB2PI] | 52 | > 132
3 | CC1=C(c2ccc3c4cccc5cccc(c6cccc2c63)c54)C(C)=[N+]2C1=C(c1c(C)cc(C)cc1C)c1c(C)cc(C)n1[B-]2(F)F [MB2P] | 6 | > 64
4 | CC1=CC(C)=[N+]2C1=C(c1ccccc1)c1c(C)c(-c3ccc4c5cccc6cccc(c7cccc3c74)c65)c(C)n1[B-]2(F)F [B2P] | 8 | > 76
